Measured values reported in ChEMBL document CHEMBL5154679, “A target and efficient synthetic strategy for structural and bioactivity optimization of a fungal natural product” (Eur J Med Chem, 2022).
Converted amounts (≈) assume the structure as drawn. The source made the active and inactive calls. The calls are words filed in the database; no cut-off is given here.

How the values were obtained:
[1] = system: HCT-116; test: Antiproliferative activity against human HCT-116 cells assessed as reduction in cell viability incubated for 48 hrs by SRB assay; format: functional, cell-based; settings: HCT-116, 48 h
[2] = system: MCF7; test: Inhibition of colony formation in human MCF7 cells at 2 ug/ml measured after 48 hrs by crystal violet staining based analysis; format: functional, cell-based; settings: dose 2.0 µg/ml
[3] = AUC (0 to infinity) in Sprague-Dawley rat at 1 mg/kg, iv by LC-MS/MS analysis; format: ADME, organism-based; parameters: time infinity, dose 1 mg/kg, route iv; settings: in vivo
[4] = system: HeLa; test: Antiproliferative activity against human HeLa cells assessed as reduction in cell viability incubated for 48 hrs by SRB assay; format: functional, cell-based
[5] = Tmax in Sprague-Dawley rat at 1 mg/kg, iv by LC-MS/MS analysis; format: ADME, organism-based; settings: in vivo
[6] = system: HeLa; test: Inhibition of colony formation in human HeLa cells at 2 ug/ml measured after 48 hrs by crystal violet staining based analysis; format: functional, cell-based; settings: dose 2.0 µg/ml
[7] = system: HCT-116; test: Inhibition of colony formation in human HCT-116 cells at 2 ug/ml measured after 48 hrs by crystal violet staining based analysis; format: functional, cell-based; settings: dose 2.0 µg/ml
[8] = system: MGC-803; test: Antiproliferative activity against human MGC-803 cells assessed as reduction in cell viability incubated for 48 hrs by SRB assay; format: functional, cell-based; settings: MGC-803, 48 h
[9] = AUC (0 to t) in Sprague-Dawley rat at 1 mg/kg, iv by LC-MS/MS analysis; format: ADME, organism-based; parameters: dose 1 mg/kg, route iv; settings: in vivo
[10] = system: MDA-MB-231; test: Anti-invasive activity against human MDA-MB-231 cells assessed as inhibition of cell invasion at 2 ug/ml measured after 24 hrs by transwell assay; format: functional, cell-based; settings: dose 2.0 µg/ml
[11] = system: MDA-MB-231; test: Anti-adhesion activity against human MDA-MB-231 cells assessed as inhibition of cell adhesion measured after 6 hrs by microscopic analysis; format: functional, cell-based
[12] = Cmax in Sprague-Dawley rat at 1 mg/kg, iv by LC-MS/MS analysis; format: ADME, organism-based; parameters: dose 1 mg/kg, route iv; settings: in vivo
[13] = MRT (0 to infinity) in Sprague-Dawley rat at 1 mg/kg, iv by LC-MS/MS analysis; format: ADME, organism-based; settings: in vivo
[14] = Cytotoxicity against human L02 cells assessed as reduction in cell viability incubated for 48 hrs by SRB assay; format: toxicity, cell-based
[15] = MRT (0 to t) in Sprague-Dawley rat at 1 mg/kg, iv by LC-MS/MS analysis; format: ADME, organism-based; settings: in vivo
[16] = system: MDA-MB-231; test: Anti-metastasis activity against human MDA-MB-231 cells assessed as inhibition of cell migration at 2 ug/ml measured after 24 hrs by scratch wound healing assay; format: functional, cell-based; settings: dose 2.0 µg/ml
[17] = Volume of distribution in Sprague-Dawley rat at 1 mg/kg, iv by LC-MS/MS analysis; format: ADME, organism-based; settings: in vivo
[18] = Cytotoxicity against human HUVEC cells assessed as reduction in cell viability incubated for 48 hrs by SRB assay; format: toxicity, cell-based
[19] = Clearance in Sprague-Dawley rat at 1 mg/kg, iv by LC-MS/MS analysis; format: ADME, organism-based; settings: in vivo
[20] = system: MCF7; test: Antiproliferative activity against human MCF7 cells assessed as reduction in cell viability incubated for 48 hrs by SRB assay; format: functional, cell-based; settings: MCF7, 48 h
[21] = Half life in Sprague-Dawley rat at 1 mg/kg, iv by LC-MS/MS analysis; format: ADME, organism-based; settings: in vivo
[22] = system: HepG2; test: Antiproliferative activity against human HepG2 cells assessed as reduction in cell viability incubated for 48 hrs by SRB assay; format: functional, cell-based; settings: HepG2, 48 h
[23] = system: MDA-MB-231; test: Antiproliferative activity against human MDA-MB-231 cells assessed as reduction in cell viability incubated for 48 hrs by SRB assay; format: functional, cell-based; settings: MDA-MB-231, 48 h

COc1cc(=O)oc(/C=C/C=C/C=C/C(C)=C/C2(C)O[C@H](C)[C@](C)(O)[C@H]2O)c1C (some centres not stated)
IC50 [1]: 19.8 µg/mL (≈ 49.1 µM)

COc1cc(=O)oc(/C=C/C=C/C=C/[C@@]2(C)C[C@]3(C)O[C@H](C)[C@](C)(O2)[C@H]3C(=O)c2cccnc2)c1C
IC50 [1]: 12.5 µg/mL (≈ 25.4 µM)

COc1cc(=O)oc(/C=C/C=C/C=C/[C@@]2(C)C[C@]3(C)O[C@H](C)[C@](C)(O2)[C@H]3C(=O)c2ccc(C#N)cc2)c1C
IC50 [1]: 11.3 µg/mL (≈ 22 µM)

COc1cc(=O)oc(/C=C/C=C/C=C/[C@@]2(C)C[C@]3(C)O[C@H](C)[C@](C)(O2)[C@H]3C(=O)c2ccc(Cl)cc2)c1C
inhibition [2]: Active
AUC(0-inf) [3]: 8640 ng·h/mL
IC50 [4]: 1.35 µg/mL (≈ 2.57 µM)
Tmax [5]: 7.2 min
inhibition [6]: Active
inhibition [7]: Active
IC50 [8]: 1.54 µg/mL (≈ 2.93 µM)
AUC(0-t) [9]: 7710 ng·h/mL
Activity [10]: Active
Activity [11]: Active
Cmax [12]: 3040 ng/mL
MRT inf [13]: 521 min
IC50 at 48 h [14]: > 50 µg/mL
MRT last [15]: 313 min
IC50 [1]: 1.23 µg/mL (≈ 2.34 µM)
Activity [16]: Active
Vd [17]: 1.42 L/kg
IC50 at 48 h [18]: > 50 µg/mL
clearance [19]: 2 mL/min/kg
IC50 [20]: 0.68 µg/mL (≈ 1.3 µM)
half-life [21]: 503 min
IC50 [22]: 1.96 µg/mL (≈ 3.73 µM)
IC50 [23]: 4.04 µg/mL (≈ 7.69 µM)

COc1cc(=O)oc(/C=C/C=C/C=C/[C@@]2(C)C[C@]3(C)O[C@H](C)[C@](C)(O2)[C@H]3C(=O)c2ccccc2)c1C
IC50 [4]: 0.85 µg/mL (≈ 1.73 µM)
IC50 [8]: 3.97 µg/mL (≈ 8.09 µM)
IC50 at 48 h [14]: 30.1 µg/mL (≈ 61.4 µM)
IC50 [1]: 1.52 µg/mL (≈ 3.1 µM)
IC50 at 48 h [18]: > 50 µg/mL
IC50 [20]: 0.92 µg/mL (≈ 1.88 µM)
IC50 [22]: 3.96 µg/mL (≈ 8.07 µM)
IC50 [23]: 4.38 µg/mL (≈ 8.93 µM)

COc1cc(=O)oc(/C=C/C=C/C=C/[C@@]2(C)C[C@]3(C)O[C@H](C)[C@](C)(O2)[C@H]3C(=O)Cc2ccc(Cl)cc2)c1C
IC50 [1]: 6.44 µg/mL (≈ 11.9 µM)

CCC[C@H]1[C@@]2(C)O[C@H](C)[C@]1(C)O[C@@](C)(/C=C/C=C/C=C/c1oc(=O)cc(OC)c1C)[C@@H]2CCC
IC50 [1]: 4.29 µg/mL (≈ 9.12 µM)

COc1cc(=O)oc(/C=C/C=C/C=C/[C@@]2(C)C[C@]3(C)O[C@H](C)[C@](C)(O2)[C@H]3C(=O)c2ccccn2)c1C
IC50 [1]: 11.4 µg/mL (≈ 23.3 µM)

COc1cccc2c1C(=O)c1c(O)c3c(c(O)c1C2=O)C[C@@](O)(C(=O)CO)C[C@@H]3O[C@H]1C[C@H](N)[C@H](O)[C@H](C)O1 [DOXORUBICIN]
IC50 [4]: 0.051 µg/mL (≈ 0.0938 µM)
IC50 [8]: 0.51 µg/mL (≈ 0.938 µM)
IC50 at 48 h [14]: > 50 µg/mL
IC50 [1]: 3.36 µg/mL (≈ 6.18 µM)
IC50 at 48 h [18]: 23.3 µg/mL (≈ 42.9 µM)
IC50 [22]: 0.64 µg/mL (≈ 1.18 µM)
IC50 [23]: 0.37 µg/mL (≈ 0.681 µM)

COc1cc(=O)oc(/C=C/C=C/C=C/[C@]2(C)O[C@]3(C)[C@@H](C(C)=O)[C@@](C)(O[C@@H]3C)[C@H]2C(C)=O)c1C
IC50 [1]: 5.77 µg/mL (≈ 12.3 µM)

COc1ccc(C(=O)[C@@H]2[C@@]3(C)O[C@@](C)(/C=C/C=C/C=C/c4oc(=O)cc(OC)c4C)C[C@]2(C)O[C@@H]3C)cc1
IC50 [1]: 4.97 µg/mL (≈ 9.55 µM)

COc1cc(=O)oc(/C=C/C=C/C=C/[C@]2(C)O[C@]3(C)[C@@H](C(=O)c4ccccc4)[C@@](C)(O[C@@H]3C)[C@H]2C(=O)c2ccccc2)c1C
IC50 [1]: 28.8 µg/mL (≈ 48.4 µM)

CCC[C@@H]1[C@@]2(C)O[C@@](C)(/C=C/C=C/C=C/c3oc(=O)cc(OC)c3C)C[C@]1(C)O[C@@H]2C
IC50 [1]: 5.9 µg/mL (≈ 13.8 µM)

COc1cc(=O)oc(/C=C/C=C/C=C/[C@@]2(C)C[C@]3(C)O[C@H](C)[C@](C)(O2)[C@H]3C(C)=O)c1C
IC50 [1]: 7.04 µg/mL (≈ 16.4 µM)

COc1cc(=O)oc(/C=C/C=C/C=C/[C@@]2(C)C[C@]3(C)O[C@H](C)[C@](C)(O2)[C@H]3C(=O)C(C)(C)C)c1C
IC50 [1]: 4.98 µg/mL (≈ 10.6 µM)

COc1cc(=O)oc(/C=C/C=C/C=C/[C@@]2(C)C[C@]3(C)O[C@H](C)[C@](C)(O2)[C@H]3C(=O)c2cccs2)c1C
inhibition [2]: Active
IC50 [4]: 1.01 µg/mL (≈ 2.03 µM)
inhibition [6]: Active
inhibition [7]: Active
IC50 [8]: 3.97 µg/mL (≈ 7.99 µM)
IC50 at 48 h [14]: > 50 µg/mL
IC50 [1]: 0.63 µg/mL (≈ 1.27 µM)
IC50 at 48 h [18]: > 50 µg/mL
IC50 [20]: 0.62 µg/mL (≈ 1.25 µM)
IC50 [22]: 2.42 µg/mL (≈ 4.87 µM)
IC50 [23]: 2.87 µg/mL (≈ 5.78 µM)

COc1cc(=O)oc(/C=C/C=C/C=C/[C@]2(C)O[C@]3(C)[C@@H](O)[C@@](C)(O[C@@H]3C)[C@H]2O)c1C
inhibition [2]: Active
AUC(0-inf) [3]: 206 ng·h/mL
Tmax [5]: 6 min
inhibition [6]: Active
inhibition [7]: Active
AUC(0-t) [9]: 203 ng·h/mL
Activity [10]: Active
Cmax [12]: 417 ng/mL
MRT inf [13]: 21 min
MRT last [15]: 19.8 min
IC50 [1]: 14.9 µg/mL (≈ 35.6 µM)
Activity [16]: Active
Vd [17]: 2.5 L/kg
clearance [19]: 83.2 mL/min/kg
half-life [21]: 21 min

COc1cc(=O)oc(/C=C/C=C/C=C/[C@@]2(C)C[C@]3(C)O[C@H](C)[C@](C)(O2)[C@H]3C(=O)c2ccncc2)c1C
IC50 [1]: 13.5 µg/mL (≈ 27.5 µM)

COc1cc(=O)oc(/C=C/C=C/C=C/[C@@]2(C)C[C@]3(C)O[C@H](C)[C@](C)(O2)[C@H]3C(=O)c2ccco2)c1C
IC50 [4]: 1.48 µg/mL (≈ 3.08 µM)
IC50 [8]: 5.79 µg/mL (≈ 12 µM)
IC50 at 48 h [14]: > 50 µg/mL
IC50 [1]: 1.4 µg/mL (≈ 2.91 µM)
IC50 at 48 h [18]: > 50 µg/mL
IC50 [20]: 0.74 µg/mL (≈ 1.54 µM)
IC50 [22]: 4.19 µg/mL (≈ 8.72 µM)
IC50 [23]: 4.46 µg/mL (≈ 9.28 µM)

COc1cc(=O)oc(/C=C/C=C/C=C/[C@@]2(C)C[C@]3(C)O[C@H](C)[C@](C)(O2)[C@H]3C(=O)CCc2ccc(Cl)cc2)c1C
IC50 [1]: 4.89 µg/mL (≈ 8.84 µM)

COc1cc(=O)oc(/C=C/C=C/C=C/[C@]2(C)O[C@]3(C)[C@@H](C(=O)c4cccnc4)[C@@](C)(O[C@@H]3C)[C@H]2C(=O)c2cccnc2)c1C
IC50 [1]: 12.5 µg/mL (≈ 21 µM)
